Measured values reported in patent publication US11752116B2, “Method of viral inhibition” (priority 2013, dated 2023).

How the values were obtained:
DENV-2 NS5 / IMPα/β = DENV-2 NS5 / IMPα/β (Dengue virus type 2, UniProt P14340); test: AlphaScreen binding of His6-NS5 to IMPα/β heterodimer; details: 3 nM His6-NS5, 10 nM IMPα/β, increasing concentrations of compound
Protocol: AlphaScreen®, a luminescent bead-based assay that measures direct protein-protein interactions, was used to examine the binding of 3 nM His6-NS5 to 10 nM IMPα/β (IMPα/β heterodimer containing biotinylated IMPβ1) in the presence of increasing concentrations of 4-HPR, 4-MPR or ATRA (FIG. 1A), or 4-oxo-4-HPR, 4-HPR or 4-MPR (FIG. 1B). Data are the mean±standard deviation (SD) of triplicate wells from a single typical experiment.
To investigate the specificity of 4-HPR inhibition of NS5-importin association, the binding of 30 nM His6-NS5 to 10 nM IMPα/β, (IMPα/β heterodimer containing biotinylated IMPβ1), 3 nM IMPαΔIBB (biotinylated IMPa with the IMPβ-binding domain removed), or 3 nM biotinylated IMPβ1, in the presence of increasing concentrations of 4-HPR, was investigated.

DENV-2 [1] = test: DENV-2 infectivity assay in Vero cells, viral RNA copies in culture medium by RT-PCR; type: cell-based; details: MOI of 1; for effect on DENV infection (viral RNA copies at 24 h p.i.): 10 μM compound
Protocol: To test the specificity of 4-HPR and 4-oxo-4-HPR for anti-DENV activity Vero cells were infected with DENV-2 with a multiplicity of infection (MOI) of 1, in the presence of drug diluent (untreated) or the indicated compounds (10 μM in FIG. 3A, or 10 μM or 5 μM as indicated in FIG. 3B) for 2 h, followed by removal of the virus/drug inoculums, and addition of fresh 2% FCS maintenance medium. At 24 h post infection (p.i.) the culture medium was collected and the viral RNA extracted using QIAamp viral RNA mini kit (Qiagen). Absolute RNA copies present in each sample were determined by Taqman One Step RT-PCR (Applied Biosystems), as an estimate of virus titre by extrapolation from a standard curve generated from in vitro transcribed DENV RNA. Data shown are the mean+standard error of the mean (SEM) for 3 (FIG. 3A) or 2 (FIG. 3B) independent experiments. Statistical analysis (Student's ttest) was performed using GraphPad Prism software.

DENV-2 [2] = test: Delayed addition in DENV-2 infected Huh-7 cells, NS1 RNA by qPCR; type: cell-based
Protocol: To gain further insight into the mode of action of 4-HPR, the human liver carcinoma cell line, Huh-7 cells were infected with DENV-2 (MOI of 1), followed by delayed addition of drug diluent DMSO (DENV only), 7.5 μM 4-HPR, 7.5 μM 4-MPR or 10 μM NITD008 (a previously described adenosine nucleoside inhibitor), 12 h post infection. Cells were lysed at the indicated times, RNA was extracted by Trizol and analysed by qPCR with fold change in expression of NS1 calculated relative to the untreated control (FIG. 5B). Concurrently, culture medium was collected and viral titres determined by plaque assay (FIG. 5C).

DENV-1 [3] = test: Cell-based flavivirus immunodetection assay in BHK-21 cells, DENV-1; details: 48 h p.i.
Protocol: (§1) To investigate this, BHK-21 cells were infected with DENV serotypes 1, 2, 3 or 4 (MOI of 0.3) for 1 h in the presence of 4-HPR or 4-MPR (concentrations as indicated in FIG. 6A). Virus inoculum was removed and fresh media containing the indicated compounds was added. Virus infection rates were determined 48 h p.i. using a cell-based flavivirus immunodetection assay. Briefly, cells were fixed and stained for DENV structural protein, E, followed by addition of Alexa Fluor 488 anti-mouse IgG. Viral antigen quantification was performed using Imagexpress. Data shown are representative of a single experiment

DENV-2 [4] = test: Cell-based flavivirus immunodetection assay in BHK-21 cells, DENV-2; details: BHK-21 cells, 48 h p.i.
Protocol: as §1

DENV-3 = test: Cell-based flavivirus immunodetection assay in BHK-21 cells, DENV-3; details: 48 h p.i.
Protocol: as §1

DENV-4 = test: Cell-based flavivirus immunodetection assay in BHK-21 cells, DENV-4; details: BHK-21 cells, 48 h p.i.
Protocol: as §1

DENV-1 [5] = test: ADE-mediated DENV-1 infection of human PBMCs, plaque assay; type: cell-based; details: ADE-mediated DENV-1 infection, 48 h
Protocol: The antiviral activity of 4-HPR was investigated in the more physiologically relevant human system of peripheral blood mononuclear cells (PBMCs), a major target of DENV infection in humans.
PBMCs were prepared from a healthy donor buffy coat using a Ficoll gradient, prior to ADE-mediated DENV-1 infection (MOI of 10) in the presence of increasing concentrations of 4-HPR or 4-MPR, and infectious virus titres determined by plaque assay 48 h later.

CHIKV = CHIKV infection of HEK293T cells, plaque assay; type: cell-based; details: 5 μM, 24 h p.i.
Protocol: HEK293T cells were treated with 5 μM 4-HPR or 4-MPR for 2 h, then infected with CHIKV for 1 h (MOI of 0.1) in the absence of compound (FIG. 9A). Alternatively, HEK293T cells were infected with CHIKV for 1 h (MOI of 0.1) without pre-treating the cells with compound (FIG. 9B). In both instances, virus inoculums were removed, then fresh medium containing the indicated compound was added (FIG. 9A and FIG. 9B). Infectious virus titres were determined by plaque assay 24 h p.i. Data are the mean+standard deviation of one experiment performed in duplicate wells, represented as plaque forming units per ml (PFU/ml).

[6] = system: West Nile virus, Kunjin strain (WNVKUN); test: West Nile virus (Kunjin strain) infection of Vero cells, plaque assay; type: cell-based; details: Vero cells
Protocol: FIG. 9C. Viral titre from a plaque assay conducted from Vero cells infected with West Nile virus (Kunjin strain; WNVKUN) after treatment with 10 μM 4-HPR for 4 h.

COc1ccc(NC(=O)/C=C(C)/C=C/C=C(C)/C=C/C2=C(C)CCCC2(C)C)cc1 [4-MPR, N-(4-methoxyphenyl) retinamide]
block of association of DENV-2 NS5 with IMPα/β (DENV-2 NS5 / IMPα/β): neither ATRA nor 4-MPR were able to disrupt association
effect on DENV infection (viral RNA copies at 24 h p.i.) (DENV-2 [1]): no effect on DENV infection
viral RNA levels (NS1 qPCR) (DENV-2 [2]; 7.5 μM added 12 h p.i., up to 60 h p.i.): viral RNA levels increased steadily until 60 h p.i.
effect on replication of DENV serotype 1 (DENV-1 [3]): did not have any effect
effect on replication of DENV serotype 2 (DENV-2 [4]): did not have any effect
effect on replication of DENV serotype 3 (DENV-3): did not have any effect
effect on replication of DENV serotype 4 (DENV-4): did not have any effect
reduction of infectious virus titre in infected PBMCs (DENV-1 [5]): no reduction
reduction of infectious CHIKV produced (CHIKV; HEK293T cells pre-treated 2 h with compound): did not reduce CHIKV titres
reduction of infectious CHIKV produced (CHIKV; HEK293T cells, compound added after infection): did not reduce CHIKV titres
antiviral activity against WNVKUN [6]: no antiviral activity

CC1=C(/C=C/C(C)=C/C=C/C(C)=C/C(=O)Nc2ccc(O)cc2)C(C)(C)CCC1=O [4-oxo-4-HPR, N-(4-hydroxyphenyl)-4-oxoretinamide]
block of association of DENV-2 NS5 with IMPα/β (DENV-2 NS5 / IMPα/β): able to block association
reduction in viral RNA copies at 24 h p.i. (DENV-2 [1]; 5 μM compound for 2 h during infection): 1 log

CC1=C(/C=C/C(C)=C/C=C/C(C)=C\C(=O)O)C(C)(C)CCC1 [13-cis retinoic acid]
effect on DENV infection (viral RNA copies at 24 h p.i.) (DENV-2 [1]): no effect on DENV infection

CC1=C(/C=C/C(C)=C/C=C/C(C)=C/C(=O)O)C(C)(C)CCC1 [ATRA, all-trans retinoic acid]
block of association of DENV-2 NS5 with IMPα/β (DENV-2 NS5 / IMPα/β): neither ATRA nor 4-MPR were able to disrupt association
effect on DENV infection (viral RNA copies at 24 h p.i.) (DENV-2 [1]): no effect on DENV infection

C#C[C@@]1(O)[C@H](O)[C@@H](CO)O[C@H]1n1ccc2c(N)ncnc21 [NITD008]
viral RNA levels (NS1 qPCR) (DENV-2 [2]; 10 μM added 12 h p.i.): reduced RNA levels

C/C(=C\c1ccc(C(=O)O)cc1)c1ccc2c(c1)C(C)(C)CCC2(C)C [arotinoid acid]
effect on DENV infection (viral RNA copies at 24 h p.i.) (DENV-2 [1]): no effect on DENV infection
